Format in all cases: cell-based
In assay [1] the target is EP2 subtype of the human PGE2 receptor (Homo sapiens, UniProt P43116). The experiment in a line: cAMP antagonism test on the human EP2 receptor (HTRF cAMP detection). The conditions noted are these: hEP2 receptor, read-out: Antagonism hEP2 IC50. The essentials: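 Read-out is a competitive HTRF for cAMP: lysate cAMP displaces cAMP-d2 from Eu cryptate-labelled antibody, and antagonism raises the 665/620 nm ratio. Compound (0.8 nM–16.5 μM) added to EP2 cells 20 min at RT before 60 min PGE2 challenge (3× stock 1.5 nM) with IBMX, followed by 20 min lysis.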
(In general: Time-resolved FRET reads energy transfer from a long-lived donor to a nearby acceptor.)

Assay [2] addresses EP4 subtype of the human PGE2 receptor (Homo sapiens, UniProt P35408). Description: cAMP antagonism test on the human EP4 receptor (HTRF cAMP detection). To be noted: selectivity towards hEP4, IC50 measured by cAMP antagonism test. Summed up: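 Competitive HTRF cAMP read-out (cAMP-d2 vs Eu-cryptate anti-cAMP antibody, 665/620 nm ratio) on lysed human EP4 cells. Compound (0.8 nM–16.5 μM) applied 20 min at RT before 60 min PGE2 challenge (3× solution 0.3 nM, IBMX present); 20 min lysis precedes reading.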

Another assay deals with T1, human PGD receptor (Homo sapiens, UniProt Q13258).
T1 sequence (Q13258 1-359): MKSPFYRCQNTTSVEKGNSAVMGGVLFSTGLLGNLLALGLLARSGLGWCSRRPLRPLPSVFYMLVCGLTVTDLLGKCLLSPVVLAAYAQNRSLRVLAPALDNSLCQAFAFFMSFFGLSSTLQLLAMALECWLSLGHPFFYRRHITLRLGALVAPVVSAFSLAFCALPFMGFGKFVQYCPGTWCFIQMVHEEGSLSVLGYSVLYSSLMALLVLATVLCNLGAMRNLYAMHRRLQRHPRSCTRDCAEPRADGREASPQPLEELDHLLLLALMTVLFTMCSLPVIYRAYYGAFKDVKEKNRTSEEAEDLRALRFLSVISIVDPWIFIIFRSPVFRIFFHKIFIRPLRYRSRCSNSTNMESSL
Description: cAMP antagonism test on the human prostaglandin D receptor (HTRF cAMP detection). The conditions noted are these: selectivity towards hDP, IC50 measured by cAMP antagonism test. The essentials:
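HTRF competition read-out (665/620 nm ratio ×10000), where higher FRET means less cAMP, i.e. antagonism. Compounds (0.8 nM–16.5 μM) were preincubated 20 min at RT with cells and cAMP-d2, PGD2 (3× solution, 6 nM) in IBMX-containing PBS added for 30 min at RT, then cells lysed 20 min.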

A word on the IC50: it is the concentration at which inhibition is half-maximal.

Structures are written as SMILES.

Sequence of EP4 subtype of the human PGE2 receptor (P35408 whole entry): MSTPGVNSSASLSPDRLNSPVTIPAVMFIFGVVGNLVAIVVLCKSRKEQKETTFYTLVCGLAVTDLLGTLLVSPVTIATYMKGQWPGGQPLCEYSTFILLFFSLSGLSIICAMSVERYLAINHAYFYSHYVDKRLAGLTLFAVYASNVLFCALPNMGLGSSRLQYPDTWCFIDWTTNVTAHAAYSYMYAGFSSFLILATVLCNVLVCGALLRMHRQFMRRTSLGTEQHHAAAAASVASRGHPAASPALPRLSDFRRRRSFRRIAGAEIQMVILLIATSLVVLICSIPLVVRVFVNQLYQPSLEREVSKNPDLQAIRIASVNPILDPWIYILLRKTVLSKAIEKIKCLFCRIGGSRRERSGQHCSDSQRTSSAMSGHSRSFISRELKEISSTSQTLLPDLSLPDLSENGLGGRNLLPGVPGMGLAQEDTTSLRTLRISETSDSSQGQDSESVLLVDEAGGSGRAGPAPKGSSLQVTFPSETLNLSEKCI
Sequence of EP2 subtype of the human PGE2 receptor (P43116 whole entry): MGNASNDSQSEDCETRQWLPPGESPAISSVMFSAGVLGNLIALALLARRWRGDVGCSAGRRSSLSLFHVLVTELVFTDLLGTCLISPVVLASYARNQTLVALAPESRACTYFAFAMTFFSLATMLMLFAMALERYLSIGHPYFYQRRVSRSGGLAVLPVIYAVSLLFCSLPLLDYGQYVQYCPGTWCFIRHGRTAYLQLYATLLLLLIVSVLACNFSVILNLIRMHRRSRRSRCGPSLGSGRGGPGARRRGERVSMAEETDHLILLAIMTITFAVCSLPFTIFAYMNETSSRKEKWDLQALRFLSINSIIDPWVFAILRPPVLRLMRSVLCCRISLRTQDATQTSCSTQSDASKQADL

As to `Cc1c(C(=O)NCC2COCCO2)ccc2nn(CC3CN(C(=O)c4ccc(Cl)cc4)C3)cc12` (single isomer, unassigned) [Example 143, (S or R)-2-{[1-(4-chlorobenzoyl)azetidin-3-yl]methyl}-N-(1,4-dioxan-2-ylmethyl)-4-methyl-2H-indazol-5-carboxamide], the IC50 in assay [1] is 36.8 nM. In assay [2], the “Selectivity hEP2/hEP4” value is “xxx (xxx > 100)”. Besides, the “Selectivity hEP2/hDP” value at human PGD receptor is given as “xxx (xxx > 100)”.

On to `COCCNC(=O)c1ccc2nn(CC3CCN(C(=O)c4ccc(C(C)(C)C#N)cc4)CC3)cc2c1C` [Example 341, 2-({1-[4-(1-cyano-1-methylethyl)benzoyl]piperidin-4-yl}methyl)-N-(2-methoxy-ethyl)-4-methyl-2H-indazol-5-carboxamide], for which, in assay [1], the IC50 was determined as 55.3 nM. Besides, the “Selectivity hEP2/hEP4” value in assay [2] was “xxx (xxx > 100)”. At human PGD receptor, the “Selectivity hEP2/hDP” value is on record as “xxx (xxx > 100)”.

Consider `Cc1c(C(=O)NCC2CCC2)ccc2nn(CC3CCN(C(=O)c4ccc(Cl)cc4)CC3)cc12` [Example 250, 2-{[1-(4-chlorobenzoyl)piperidin-4-yl]methyl}-N-(cyclobutylmethyl)-4-methyl-2H-indazol-5-carboxamide], for which the IC50 in assay [1] came to 30.6 nM. Moreover, the “Selectivity hEP2/hEP4” value in assay [2] is “xxx (xxx > 100)”. On human PGD receptor, the “Selectivity hEP2/hDP” value is recorded as “xxx (xxx > 100)”.

As for `COCCNC(=O)c1ccc2nn(CC3CCN(C(=O)c4ccc(-c5ccccc5C)cc4)CC3)cc2c1C` [Example 50, N-(2-methoxyethyl)-4-methyl-2-({1-[(2′-methylbiphenyl-4-yl)carbonyl]piperidin-4-yl}methyl)-2H-indazol-5-carboxamide], the IC50 in assay [1] is 3.18 nM. For the same compound, the “Selectivity hEP2/hEP4” value in assay [2] is reported as “xxx (xxx > 100)”. Moreover, the “Selectivity hEP2/hDP” value at human PGD receptor is recorded as “xxx (xxx > 100)”.

In the case of `COCCNC(=O)c1ccc2nn(CC3CCN(C(=O)c4ccc(-c5ccncc5)c(C)c4)CC3)cc2c1C` [Example 393, N-(2-methoxyethyl)-4-methyl-2-({1-[3-methyl-4-(4-pyridyl)benzoyl]piperidin-4-yl}methyl)-2H-indazol-5-carboxamide], in assay [1], the IC50 turned out to be 50 nM. The “Selectivity hEP2/hEP4” value in assay [2] was “xxx (xxx > 100)”. Besides, the “Selectivity hEP2/hDP” value at human PGD receptor was “xxx (xxx > 100)”.

As to `Cc1c(C(=O)NCC2COCCO2)ccc2nn(CC3CCN(C(=O)c4ccc(-c5ccc(F)cc5)cc4)CC3)cc12` (racemic) [Example 411, (+/−)-N-(1,4-dioxan-2-ylmethyl)-2-({1-[(4′-fluorobiphenyl-4-yl)carbonyl]-piperidin-4-yl}methyl)-4-methyl-2H-indazol-5-carboxamide], the IC50 in assay [1] was found to be 16.5 nM. Besides, the “Selectivity hEP2/hEP4” value in assay [2] is reported as “xxx (xxx > 100)”. Also, the “Selectivity hEP2/hDP” value on human PGD receptor was “xxx (xxx > 100)”.

For the compound `Cc1cc2nn(CC3CCN(C(=O)c4ccc(OC(F)(F)F)cc4)CC3)cc2cc1C(=O)NCCN1CCOCC1` [Example 75, 6-methyl-N-(2-morpholinoethyl)-2-({1-[4-(trifluorometh-oxy)benzoyl]piperidin-4-yl}methyl)-2H-indazol-5-carboxamide], the IC50 in assay [1] was determined as 67 nM. In addition, the “Selectivity hEP2/hEP4” value in assay [2] was “xxx (xxx > 100)”. Further, the “Selectivity hEP2/hDP” value on human PGD receptor is reported as “xxx (xxx > 100)”.

Turning to `Cc1c(C(=O)NCCOCC(F)(F)F)ccc2nn(CC3CCN(C(=O)c4ccc(C(F)(F)F)cc4)CC3)cc12` [Example 93, 4-methyl-N-[2-(2,2,2-trifluoro-ethoxy)ethyl]-2-({1-[4-(trifluoro-methyl)benzoyl]-piperidin-4-yl}-methyl)-2H-indazol-5-carboxamide], in assay [1], the IC50 was determined as 11.5 nM. In assay [2], the “Selectivity hEP2/hEP4” value is on record as “xxx (xxx > 100)”. For the same compound, on human PGD receptor, the “Selectivity hEP2/hDP” value was “xxx (xxx > 100)”.

Take `Cc1ccc(C(=O)N2CC(Cn3cc4c(C)c(C(=O)NCCOCC5CC5)ccc4n3)C2)cc1` [Example 151, N-[2-(cyclopropylmethoxy)ethyl]-4-methyl-2-{[1-(4-methylbenzoyl)azetidin-3-yl]methyl}-2H-indazol-5-carboxamide]: the IC50 in assay [1] is 48.5 nM. The “Selectivity hEP2/hEP4” value in assay [2] is on record as “xxx (xxx > 100)”. Also, on human PGD receptor, the “Selectivity hEP2/hDP” value was “xxx (xxx > 100)”.

`Cc1c(C(=O)NCCOCC2CC2)ccc2nn(CC3CCN(C(=O)c4ccc(Oc5ccc(F)cc5)cc4)CC3)cc12` [Example 86, N-[2-(cyclopropyl-methoxy)ethyl]-2-({1-[4-(4-fluorophenoxy)-benzoyl]piperidin-4-yl}methyl)-4-methyl-2H-indazol-5-carboxamide]: the IC50 in assay [1] was 15.4 nM. Moreover, the “Selectivity hEP2/hEP4” value in assay [2] is reported as “xxx (xxx > 100)”. For the same compound, on human PGD receptor, the “Selectivity hEP2/hDP” value is on record as “xxx (xxx > 100)”.

Consider `COCCNC(=O)c1ccc2nn(CC3CCN(C(=O)c4ccc(-c5ccc(F)cc5Cl)cc4)CC3)cc2c1C` [Example 384, 2-({1-[(2′-chloro-4′-fluorobiphenyl-4-yl)carbonyl]piperidin-4-yl}methyl)-N-(2-methoxyethyl)-4-methyl-2H-indazol-5-carboxamide], for which, in assay [1], the IC50 turned out to be 3.95 nM. In addition, the “Selectivity hEP2/hEP4” value in assay [2] is on record as “xxx (xxx > 100)”. For the same compound, on human PGD receptor, the “Selectivity hEP2/hDP” value was “xxx (xxx > 100)”.

Take `[2H]C([2H])([2H])OC([2H])([2H])C([2H])([2H])NC(=O)c1ccc2nn(CC3CCN(C(=O)c4ccc(Oc5ccc(F)cc5)cc4)CC3)cc2c1C` [Example 116, 2-({1-[4-(4-fluoro-phenoxy)benzoyl]-piperidin-4-yl}methyl)-4-methyl-N-(2-[^2H3]-methyloxy[^2H4]ethyl)-2H-indazol-5-carboxamide]: the IC50 in assay [1] was found to be 5.52 nM. In addition, the “Selectivity hEP2/hEP4” value in assay [2] was “xxx (xxx > 100)”. Moreover, at human PGD receptor, the “Selectivity hEP2/hDP” value is recorded as “xxx (xxx > 100)”.

Consider `COCCNC(=O)c1ccc2nn(CC3CCN(C(=O)c4ccc(S(C)(=O)=O)cc4F)CC3)cc2c1C` [Example 6, 2-{[1-(2-fluoro-4-mesylbenzoyl)piperidin-4-yl]methyl}-N-(2-methoxyethyl)-4-methyl-2H-indazol-5-carboxamide], for which the IC50 in assay [1] amounted to 313 nM. Moreover, the “Selectivity hEP2/hEP4” value in assay [2] is recorded as “xx (xx: 10-100)”. The “Selectivity hEP2/hDP” value on human PGD receptor is “xx (xx: 10-100)”.

For `Cc1c(C(=O)NCC(F)(F)F)ccc2nn(CC3CCN(C(=O)c4ccc(-c5ccc(F)cc5)cc4)CC3)cc12` [Example 286, 2-({1-[(4′-fluorobiphenyl-4-yl)carbonyl]piperidin-4-yl}methyl)-4-methyl-N-(2,2,2-trifluoroethyl)-2H-indazol-5-carboxamide], the IC50 in assay [1] was found to be 100 nM. Besides, the “Selectivity hEP2/hEP4” value in assay [2] is given as “xxx (xxx > 100)”. The “Selectivity hEP2/hDP” value at human PGD receptor is “xxx (xxx > 100)”.

In the case of `Cc1c(C(=O)NCCOC(C)(C)C)ccc2nn(CC3CCN(C(=O)c4ccc(Oc5ccc(C(F)(F)F)cc5)cc4)CC3)cc12` [Example 114, N-(2-tert-butoxyethyl)-4-methyl-2-[(1-{4-[4-(trifluoromethyl)-phenoxy]benzoyl}-piperidin-4-yl)methyl]-2H-indazol-5-carboxamide], the IC50 in assay [1] came out at 6.08 nM. In addition, in assay [2], the “Selectivity hEP2/hEP4” value is on record as “xxx (xxx > 100)”. Moreover, at human PGD receptor, the “Selectivity hEP2/hDP” value is “xxx (xxx > 100)”.

Turning to `COCCNC(=O)c1ccc2nn(CC3CCN(C(=O)c4ccc(Oc5ccccn5)cc4)CC3)cc2c1C` [Example 346, N-(2-methoxyethyl)-4-methyl-2-({1-[4-(2-pyridyloxy)benzoyl]piperidin-4-yl}-methyl)-2H-indazol-5-carboxamide], the IC50 in assay [1] came to 14.9 nM. In assay [2], the “Selectivity hEP2/hEP4” value is “xxx (xxx > 100)”. Further, on human PGD receptor, the “Selectivity hEP2/hDP” value is “xxx (xxx > 100)”.

As for `Cc1c(C(=O)NCCC#N)ccc2nn(CC3CCN(C(=O)c4ccc(Oc5ccc(C(F)(F)F)cc5)cc4)CC3)cc12` [Example 246, N-(2-cyanoethyl)-4-methyl-2-[(1-{4-[4-(trifluoromethyl)phenoxy]benzoyl}piperidin-4-yl)methyl]-2H-indazol-5-carboxamide], in assay [1], the IC50 was found to be 9.23 nM. The “Selectivity hEP2/hEP4” value in assay [2] is given as “xxx (xxx > 100)”. For the same compound, the “Selectivity hEP2/hDP” value on human PGD receptor was “xxx (xxx > 100)”.

In the case of `COCCNC(=O)c1ccc2nn(CC3CCN(C(=O)c4cn(C)c5ccccc45)CC3)cc2c1C` [Example 331, N-(2-methoxyethyl)-4-methyl-2-({1-[(1-methyl-1H-indol-3-yl)carbonyl]-piperidin-4-yl}methyl)-2H-indazol-5-carboxamide], the IC50 in assay [1] turned out to be 9.47 nM. For the same compound, in assay [2], the “Selectivity hEP2/hEP4” value is on record as “xxx (xxx > 100)”. Moreover, the “Selectivity hEP2/hDP” value at human PGD receptor is “xxx (xxx > 100)”.

`COCCNC(=O)c1cc2cn(CC3CCN(C(=O)c4ccc(Cl)c(C(F)(F)F)c4)CC3)nc2cc1C` [Example 209, 2-({1-[4-chloro-3-(trifluoromethyl)benzoyl]piperidin-4-yl}methyl)-N-(2-methoxyethyl)-6-methyl-2H-indazol-5-carboxamide]: the IC50 in assay [1] came to 25.1 nM. In addition, in assay [2], the “Selectivity hEP2/hEP4” value is “xxx (xxx > 100)”. Also, the “Selectivity hEP2/hDP” value on human PGD receptor is on record as “xxx (xxx > 100)”.
